ChEMBL document CHEMBL4680334, “Fluorescent image-based high-content screening of extracts of natural resources for cell cycle inhibitors and identification of a new sesquiterpene quinone from the sponge, Dactylospongia metachromia” (Bioorg Med Chem, 2021)
Active and inactive are the calls of the source. No cut-off for these calls is given here.

Experiments:
[1] = test system: HeLa; test: Inhibition of cell cycle progression in human HeLa cells harboring Fucci2 assessed as cell cycle arrest at G2/M phase at 2 times of IC50 incubated for 2 days by fluorescence microscopic analysis; type: functional, cell-based; details: time 2.0 day
[2] = test system: HeLa; test: Induction of cell cycle arrest in human HeLa cells assessed as accumulation in G2/M phase at 15 uM incubated for 1 day by propidium iodide staining based flow cytometry analysis (reference value: 14.2 %); type: functional
[3] = test system: HeLa; test: Cytotoxicity against human HeLa cells harboring Fucci2 assessed as reduction in cell growth incubated for 3 days by MTT assay; type: functional, cell-based; details: 72 h
[4] = test system: HeLa; test: Inhibition of cell cycle progression in human HeLa cells harboring Fucci2 assessed as cell cycle arrest at S phase at 2 times of IC50 incubated for 2 days by fluorescence microscopic analysis; type: functional, cell-based; details: time 2.0 day
[5] = test system: HeLa; test: Induction of cell cycle arrest in human HeLa cells assessed as accumulation at G1 phase at 15 uM incubated for 1 day by propidium iodide staining based flow cytometry analysis (reference value: 59.7 %); type: functional
[6] = test system: HeLa; test: Induction of cell cycle arrest in human HeLa cells assessed as accumulation at S phase at 15 uM incubated for 1 day by propidium iodide staining based flow cytometry analysis (reference value: 26.1 %); type: functional

Compound: CC1=CCC[C@H]2[C@](C)(CC3=C(O)C(=O)C=C(N)C3=O)[C@@H](C)CC[C@]12C
- inhibition [1]: Active
- Activity [2]: 26.3%
- IC50 [3]: 18 µM
- inhibition [4]: Active
- Activity [5]: 27.2%
- Activity [6]: 46.5%

Compound: COC(=O)c1ccc(O)c(C[C@]2(C)[C@@H](C)CC[C@]3(C)C(C)=CCC[C@@H]23)c1
- inhibition [1]: inactive
- IC50 [3]: 13 µM
- inhibition [4]: inactive

Compound: CC1=CCC[C@H]2[C@](C)(CC3=C(O)C(=O)C=C(NCCC[S+](C)[O-])C3=O)[C@@H](C)CC[C@]12C (stereo partly drawn) [NAKIJIQUINONE I]
- inhibition [1]: Active
- IC50 [3]: 16 µM
- inhibition [4]: Active

Compound: CC1=CCC[C@H]2[C@](C)(CC3=C(O)C(=O)C=C(NCCC(C)C)C3=O)[C@@H](C)CC[C@]12C [NAKIJIQUINONE N]
- inhibition [1]: Active
- IC50 [3]: 30 µM
- inhibition [4]: Active

Compound: CC1=CCC[C@H]2[C@](C)(CC3=C(O)C(=O)C=C(NCCc4ccccc4)C3=O)[C@@H](C)CC[C@]12C [NAKIJIQUINONE Q]
- inhibition [1]: Active
- IC50 [3]: 36 µM
- inhibition [4]: Active
